Values after ≈ are worked out from the molar mass of the structure shown. Read-outs that look alike come from different tables or passages of the source.
Legend:
[1] = test system: E. coli DH10B pBCSK(−) producing R228M variant; experiment: MIC by agar dilution, E. coli DH10B producing VIM-2 R228M; assay type: cell-based; details: Escherichia coli
Description: (§1) E. coli DH10B (Invitrogen, Carlsbad, Calif.) was used as a host strain for pBCSK (−) blaVIM-2, and to obtain a mutant library at position 228 by site-saturation mutagenesis, using the QuickChange XL Site-directed Mutagenesis Kit (Stratagene). Briefly, primers that capture all 19 variants at MBL position 228 were designed and PCR mutagenic reactions were conducted using pBCSK (−) blaVIM-2 as a template, and transformed into E. coli DH10B. Single colonies were selected for plasmid purification, and successful mutagenesis was verified by complete DNA sequencing.
(§2) The effect of Zn^2+ availability was also tested by agar dilution using MH supplemented with 250 μM ZnSO4 or 5 μM EDTA. Reported values are the mode of at least 3 biological replicates.

[2] = test system: E. coli DH10B pBCSK(−) producing R228Y variant; experiment: MIC by agar dilution, E. coli DH10B producing VIM-2 R228Y; assay type: cell-based; details: Escherichia coli
Description: as §1, §2

[3] = test system: E. coli DH10B pBCSK(−) producing R228P variant; experiment: MIC by agar dilution, E. coli DH10B producing VIM-2 R228P; assay type: cell-based; details: Escherichia coli
Description: as §1, §2

[4] = test system: E. coli DH10B pBCSK(−) producing VIM-24 (R228L); experiment: MIC by agar dilution, E. coli DH10B producing VIM-24; assay type: cell-based; details: Escherichia coli
Description: as §1, §2

VIM-24 [5] = biological target: T1, VIM-24 (Escherichia coli, UniProt Q5U7L7, R205L); experiment: Cefepime and ceftazidime hydrolysis in periplasm preparations, VIM-24; assay type: biochemical; details: 800 μM cefepime or 400 μM ceftazidime, 25° C.
T1 construct: which corresponds to cleavage after residues 20 (plus an additional Met residue on the N-terminus); made in house; host or cells: E. coli BL21(DE3) pLys, plasmid pET-24a(+)-blaVIM-24-S21
Description: (§3) Additionally, cefepime and ceftazidime hydrolysis were measured using periplasm preparations, as previously described. Briefly, periplasmic preparations of E. coli DH10B pBC SK (−) harboring blaVIM-2 or blaVIM-24 were obtained by osmotic shock with chloroform, and MBL production assessed by immunoblotting. Initial velocities of hydrolysis at high substrate concentrations (800 μM for cefepime and 400 μM for ceftazidime) were measured using equal amounts of both β-lactamases in 15 mM HEPES pH 7.5, 200 mM NaCl, supplemented with 50 μM ZnSO4, at 25° C.

[6] = test system: E. coli DH10B pBCSK(−) producing R228Q variant; experiment: MIC by agar dilution, E. coli DH10B producing VIM-2 R228Q; assay type: cell-based; details: Escherichia coli
Description: as §1, §2

E. coli pBC SK(−) = experiment: MIC by agar dilution, E. coli DH10B host with empty phagemid; assay type: cell-based; details: Escherichia coli
Description: as §1, §2

[7] = test system: E. coli DH10B pBCSK(−) producing R228K variant; experiment: MIC by agar dilution, E. coli DH10B producing VIM-2 R228K; assay type: cell-based; details: Escherichia coli
Description: as §1, §2

[8] = test system: E. coli DH10B pBCSK(−) producing VIM-2 (228R); experiment: MIC by agar dilution, E. coli DH10B producing VIM-2; assay type: cell-based
From the text: A forward primer containing the SacI restriction site and a reverse primer with the BamHI restriction site were used to amplify blaVIM-2 including the pET24a(+) ribosomal binding site, using plasmid pET-24a(+)-blaVIM-2 as template. The product was then subcloned into phagemid pBCSK (−) (Agilent (Santa Clara, Calif.)) using the above restriction sites, and thus placing the blaVIM-2 open reading frame under control of the lac promoter, to yield phagemid pBCSK (−) blaVIM-2.
as §1, §2

VIM-2 [9] = biological target: T2, VIM-2 (Escherichia coli, UniProt Q5U7L7); experiment: Cefepime and ceftazidime hydrolysis in periplasm preparations, VIM-2; assay type: biochemical, P. aeruginosa; details: 800 μM cefepime or 400 μM ceftazidime, 25° C.
T2 construct: expressed in transfected cells; host or cells: E. coli DH10B carrying pBC SK(-) blaVIM-2; periplasmic extract by osmotic shock with chloroform
Description: as §3

VIM-24 [10] = biological target: T1, VIM-24; experiment: BTZ inhibition kinetics of nitrocefin hydrolysis by VIM-24; assay type: biochemical
From the text: (§4) Analysis of BTZ inhibition kinetics. Models involving one, or two-step slow binding were considered to analyze BTZ inhibition of NFC hydrolysis by VIM-2 and VIM-24 (Scheme 1).
(§5) Here E represents the free enzyme, and I the free inhibitor, EI is the final enzyme-inhibitor complex for a single step slow binding mechanism, and E*I is the enzyme-inhibitor complex formed after conformational changes in a two-step slow binding mechanism. Therefore, the dissociation constant for the EI complex (Ki), also called the inhibitor constant, is defined as Ki=k−1/k1; the dissociation constant for the E*I complex (Ki′) is defined as Ki′=k−2/k2, and the overall dissociation constant for the two-step mechanism (Ki*) is defined as Ki*=Ki/(1+([…])).
(§6) The Ki for each inhibitor was determined by direct competition assays under steady-state conditions. The initial velocity was measured in the presence of a constant concentration of enzyme (3 nM for VIM-2 and 4 nM for VIM-24) with increasing concentrations of inhibitor (5-60 μM) against a fixed concentration (5 x KM) of the indicator substrate, NCF, as previously described (42-44). The reactions were started by addition of VIM-2 or VIM-24 to substrate or to mixtures of substrate and inhibitor. Data were linearized by plotting inverse initial steady-state velocities (1/v0) against inhibitor concentration (I). Ki (observed) was determined by dividing the value for the y intercept by the slope of the line. Ki determinations were corrected to account for the affinity of NCF for the β-lactamase according to equation 3.
(§7) Measurements of association rate constants for inhibitor binding were carried out at 25° C. in 10 mM HEPES at pH 7.5 supplemented with 200 mM NaCl, 50 μM […] and 50 μg/ml BSA, in the presence of several concentrations of each compound. Reactions were then initiated by the addition of β-lactamase (3 nM VIM-2 or 4 nM VIM-24) to a mixture of 50 μM NCF and each BTZ without pre-incubation. Inhibitor association rate constants were estimated from linear extrapolation of the observed rate constant for inhibition (kobs), which was obtained by fitting progress curves of NFC hydrolysis to Eq. 4:
(§8) As previously described, the linear dependence of kobs vs. [I] at limiting I concentration approximates second-order rate constant k2/Ki. The observed second-order rate constant also includes an adjustment for competition between inhibitor and substrate binding (Eq. 5).
(§9) Also, vs calculated from the progress curves of NCF hydrolysis for each concentration of inhibitor were used to determine Ki*, according to the relationship shown in equation 6 (5). The value reported is the mean of three velocities±SD.
(§10) To further test the time-dependent inhibition mechanism of inhibitor binding, assays using dilutions of pre-formed complexes were performed. For these experiments, 1 μM of enzyme was incubated with varying concentrations of the inhibitor which allowed for complete inactivation of the enzyme during the 5 min incubation at 25° C. The reactions were then diluted 2,000-fold in 10 mM HEPES at pH 7.5 supplemented with 200 mM NaCl, 50 μM […] and 50 μg/ml BSA, which contained 50 μM NCF. Reactivation of the enzyme based on NCF hydrolysis was monitored over time. Control reaction with the free enzyme was performed in the same fashion.

VIM-2 [11] = biological target: T3, VIM-2 (Pseudomonas aeruginosa, UniProt Q9K2N0); experiment: BTZ inhibition kinetics of nitrocefin hydrolysis by VIM-2; assay type: biochemical, P. aeruginosa
T3 construct: made in house; host or cells: E. coli BL21(DE3) pLys, plasmid pET-24a(+)-blaVIM-2-S21
From the text: as §4, §5, §6, §7, §8, §9, §10

MBLs = experiment: Assays in solution after prolonged exposure to oxidative conditions; assay type: biochemical; details: data not shown
[12] = MHA supplemented with 5 μM EDTA
[13] = MHA supplemented with 250 μM Zn2+
[14] = MHA supplemented with 5 μM EDTA, read-out: MIC
[15] = MHA supplemented with 250 μM Zn2+, read-out: MIC
[16] = Escherichia coli, MHA supplemented with 5 μM EDTA, read-out: MIC
[17] = Escherichia coli, MHA supplemented with 250 μM Zn2+, read-out: MIC
[18] = rate constant for breakdown of E*I
[19] = rate constant for formation of E*I

Compound	MIC ([1]; MHA)	MIC [1, 12]	MIC [1, 13]	MIC ([2]; MHA)	MIC [2, 12]	MIC [2, 13]	MIC ([3]; MHA)	MIC [3, 12]	MIC [3, 13]	MIC ([4]; MHA)	MIC [4, 14]	MIC [4, 15]	rate of hydrolysis (initial velocity) in periplasma (VIM-24 [5])	MIC ([6]; MHA)	MIC [6, 12]	MIC [6, 13]	MIC (E. coli pBC SK(−); MHA)	MIC (E. coli pBC SK(−); [12])	MIC (E. coli pBC SK(−); [13])	MIC ([7]; MHA)	further results
CC(C)(O/N=C(\C(=O)N[C@@H]1C(=O)N2C(C(=O)[O-])=C(C[n+]3ccccc3)CS[C@H]12)c1csc(N)n1)C(=O)O [Ceftazidime]	128 µg/mL (≈ 234 µM)	64 µg/mL (≈ 117 µM)	256 µg/mL (≈ 468 µM)	64 µg/mL (≈ 117 µM)	64 µg/mL (≈ 117 µM)	128 µg/mL (≈ 234 µM)	1 µg/mL (≈ 1.83 µM)	≤ 1 µg/mL	4 µg/mL (≈ 7.32 µM)	64 µg/mL (≈ 117 µM)	32 µg/mL (≈ 58.5 µM)	128 µg/mL (≈ 234 µM)	4e-07 M/s	128 µg/mL (≈ 234 µM)	128 µg/mL (≈ 234 µM)	512 µg/mL (≈ 937 µM)	0.06 µg/mL (≈ 0.11 µM)	≤ 1 µg/mL	≤ 1 µg/mL	1 µg/mL (≈ 1.83 µM)	MIC [7, 12]: ≤ 1 µg/mL; MIC [7, 13]: ≤ 1 µg/mL; MIC ([8]; Escherichia coli, MHA): 16 µg/mL (≈ 29.3 µM); MIC [8, 16]: 16 µg/mL (≈ 29.3 µM); MIC [8, 17]: 32 µg/mL (≈ 58.5 µM); rate of hydrolysis (initial velocity) in periplasma (VIM-2 [9]): measurable rates of hydrolysis were not obtained
O=C(O)[C@@H]1CS[C@H]2CS[C@H](CS)N21 [L-CS319]	–	–	–	–	–	–	–	–	–	–	–	–	–	–	–	–	–	–	–	–	k−2 (VIM-24 [10]; [18]): 0.001 ± 1 × 10^−3 s^−1; k2 (VIM-24 [10]; [19]): 0.06 ± 2 × 10^−3 s−1; Ki (VIM-2 [11]; initial complex EI, NCF as reporter substrate): 3700 ± 300 nM; Ki (VIM-2 [11]; overall dissociation constant of two-step mechanism (E*I)): 40 ± 10 nM; k−2 (VIM-2 [11]; [18]): 0.0003 ± 1 × 10^−4 s^−1; k2 (VIM-2 [11]; [19]): 0.03 ± 1 × 10^−3 s^−1; inhibitory activity towards MBLs after prolonged exposure to oxidative conditions (MBLs): abolishes the inhibitory activity
CO/N=C(\C(=O)N[C@@H]1C(=O)N2C(C(=O)[O-])=C(C[N+]3(C)CCCC3)CS[C@H]12)c1csc(N)n1 [Cefepime]	2 µg/mL (≈ 4.16 µM)	4 µg/mL (≈ 8.32 µM)	2 µg/mL (≈ 4.16 µM)	8 µg/mL (≈ 16.6 µM)	8 µg/mL (≈ 16.6 µM)	8 µg/mL (≈ 16.6 µM)	0.25 µg/mL (≈ 0.52 µM)	≤ 0.25 µg/mL	0.5 µg/mL (≈ 1.04 µM)	4 µg/mL (≈ 8.32 µM)	4 µg/mL (≈ 8.32 µM)	4 µg/mL (≈ 8.32 µM)	5.3e-07 M/s	16 µg/mL (≈ 33.3 µM)	16 µg/mL (≈ 33.3 µM)	32 µg/mL (≈ 66.6 µM)	0.03 µg/mL (≈ 0.0624 µM)	≤ 0.25 µg/mL	≤ 0.25 µg/mL	0.5 µg/mL (≈ 1.04 µM)	MIC [7, 12]: ≤ 0.25 µg/mL; MIC [7, 13]: ≤ 0.25 µg/mL; MIC ([8]; Escherichia coli, MHA): ≤ 0.5 µg/mL; MIC [8, 16]: 0.5 µg/mL (≈ 1.04 µM); MIC [8, 17]: 0.5 µg/mL (≈ 1.04 µM); MIC ([8]; MHA): 0.5 µg/mL (≈ 1.04 µM); rate of hydrolysis (initial velocity) in periplasma (VIM-2 [9]): 2.9×10^−7 M^s−1

Source: patent US10251869B2, “Compositions and methods of inhibiting metallo-β-lactamases” (priority 2014, dated 2019)
